Data reported in US20170291905A1, “ARGININE […] INHIBITORS AND USES THEREOF” (Epizyme, Inc., priority 2014, published 2017).

Molecular target: full-length human PRMT8 isoform 1 (Homo sapiens, UniProt Q9NR22)
Assay: PRMT8 biochemical assay (3H-SAM Flashplate, histone H4 31-45 peptide)
Conditions: 1.5 nM PRMT8, 30 min preincubation, 150 nM peptide
Method in brief: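 Purified untagged full-length PRMT8 (1.5 nM) preincubated with compound 30 min at room temperature in 20 mM Bicine pH 7.6, then reacted with 150 nM biotinylated H4 peptide, 50 nM 3H-SAM plus 550 nM SAM, 2% DMSO. Stopped with 400 uM cold SAM; peptide captured on streptavidin Flashplate, counted; % inhibition vs DMSO/SAH controls fitted for IC50.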

Chain of full-length human PRMT8 isoform 1 (Q9NR22 whole entry, canonical isoform): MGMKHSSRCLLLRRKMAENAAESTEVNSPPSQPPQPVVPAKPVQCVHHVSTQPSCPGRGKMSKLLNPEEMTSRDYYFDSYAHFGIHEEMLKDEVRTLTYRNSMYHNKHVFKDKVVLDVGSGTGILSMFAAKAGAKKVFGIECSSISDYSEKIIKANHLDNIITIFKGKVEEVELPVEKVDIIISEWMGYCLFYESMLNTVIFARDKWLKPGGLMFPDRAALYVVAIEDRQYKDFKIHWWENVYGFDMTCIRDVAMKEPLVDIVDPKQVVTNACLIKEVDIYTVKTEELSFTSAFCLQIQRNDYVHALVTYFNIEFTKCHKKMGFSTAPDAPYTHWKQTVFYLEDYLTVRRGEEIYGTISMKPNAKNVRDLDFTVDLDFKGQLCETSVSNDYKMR

Row | SMILES | IC50
1 | CC[C@H]1CC[C@@H](c2n[nH]cc2CN(C)CCNC)CC1 [compound 1] | 0.0111 µM
2 | CCOCCOCC1(COCCOCC)CCC(c2n[nH]cc2CN(C)CCNC)CC1 [compound 39, N1-((3-(4,4-bis((2-ethoxyethoxy)methyl)cyclohexyl)-1H-pyrazol-4-yl)methyl)-N1,N2-dimethylethane-1,2-diamine] | 0.139 µM
3 | CNCCN(C)Cc1c[nH]nc1C1CCC(COCCC2CCOCC2)(COCCC2CCOCC2)CC1 [compound 40] | 0.0455 µM
4 | CNCCN(C)Cc1c[nH]nc1C1CCC(COCC2CC2)(COCC2CC2)CC1 [compound 41, N1-((3-(4,4-bis((cyclopropylmethoxy)methyl)cyclohexyl)-1H-pyrazol-4-yl)methyl)-N1,N2-dimethylethane-1,2-diamine] | 0.00927 µM
5 | CN(C)CCN(C)Cc1c[nH]nc1[C@H]1CC[C@@]2(CC1)CC(C)(C)CO2 [compound 42, N1-((3-((5S,8S)-3,3-dimethyl-1-oxaspiro[4.5]decan-8-yl)-1H-pyrazol-4-yl)methyl)-N1,N2,N2-trimethylethane-1,2-diamine] | 0.0338 µM
6 | CN(C)CCN(C)Cc1c[nH]nc1[C@H]1CC[C@]2(CC1)CC(C)(C)CO2 [compound 43, N1-((3-((5r,8r)-3,3-dimethyl-1-oxaspiro[4.5]decan-8-yl)-1H-pyrazol-4-yl)methyl)-N1,N2,N2-trimethylethane-1,2-diamine] | 0.0972 µM
7 | CNCCN(C)Cc1c[nH]nc1C1CCC(CO)(CO)CC1 [compound 44, (4-(4-((methyl(2-(methylamino)ethyl)amino)methyl)-1H-pyrazol-3-yl)cyclohexane-1,1-diyl)dimethanol] | 0.0344 µM
8 | CNCCN(C)Cc1c[nH]nc1C1CCC(COC)(COCC2CCOCC2)CC1 (stereo not drawn) [compound 45] | 0.0112 µM
9 | CNCCN(C)Cc1c[nH]nc1C1=CCC2(CC1)CC(C)(C)CO2 (stereo not drawn) [compound 46, N1-((3-(3,3-dimethyl-1-oxaspiro[4.5]dec-7-en-8-yl)-1H-pyrazol-4-yl)methyl)-N1,N2-dimethylethane-1,2-diamine] | 0.0246 µM
10 | CCC1(CC)C[C@]2(CC[C@H](c3n[nH]cc3CN(C)CCNC)CC2)NC1=O [compound 47, (5s,8s)-3,3-diethyl-8-(4-((methyl(2-(methylamino)ethyl)amino)methyl)-1H-pyrazol-3-yl)-1-azaspiro[4.5]decan-2-one] | 0.0149 µM
11 | CCC1(CC)C[C@]2(CC[C@@H](c3n[nH]cc3CN(C)CCNC)CC2)NC1=O [compound 48, (5r,8r)-3,3-diethyl-8-(4-((methyl(2-(methylamino)ethyl)amino)methyl)-1H-pyrazol-3-yl)-1-azaspiro[4.5]decan-2-one] | 0.0706 µM
12 | CNCCN(C)Cc1ccnn1[C@H]1CC[C@@]2(CC1)CC(C)(C)CO2 [compound 49, N1-((1-((5s,8s)-3,3-dimethyl-1-oxaspiro[4.5]decan-8-yl)-1H-pyrazol-5-yl)methyl)-N1,N2-dimethylethane-1,2-diamine] | 0.0167 µM
